Source: patent publication US9278970B2, “Co-crystals of tadalafil and a hydroxy-substituted benzoic acid coformer as phosphodiesterase type 5 inhibitors” (Laboratorios Senosiain S.A. de C.V., priority 2012, dated 2016)

Key:
[1] = physicochemical stability of the new solid forms
Text: Although there is good understanding of the physicochemistry of the cocrystal components, their elucidation a priori is almost impossible, as the interactions which determine the structure are relatively weak and the number of degrees of freedom for the optimization problem is immeasurable. For these reasons, the new solid forms disclosed herein are not obvious to a person skilled in the art. Further, the cocrystals and solvates of the present invention have shown physicochemical stability, allowing their use in pharmaceutical compositions. The present invention worked, among others, with the following coformers: aliphatic carboxylic acids, aromatic carboxylic acids, aromatic hydroxycarboxylic acids, aliphatic hydroxycarboxylic acids, aromatic heterocyclic amides, amino acid derivatives, polyphenols, alcohols such as xylitol and aromatic aminocarboxylic acids such as 3-aminobenzoic acid. A new solid form (NSF) which was stable with 3-hydroxybenzoic acid was found in the different assays of the present invention. The obtained NSF corresponds to a compound wherein the neutral coformer has a hydroxyl group and a carboxylic acid, and further contains a phenyl group as part of its structure.

[2] = in therapeutic concentrations; cited from earlier work
[3] = cited from earlier work
[4] = neutral form, D+ isomer (6R,12R); cited from earlier work

| physicochemical stability of the solid form [1] | Compound | plasmatic tadalafil bonded to proteins [2] | eliminated in faeces, predominantly as metabolites ([3]; faeces) | eliminated in urine, predominantly as metabolites ([3]; urine) | solubility in water [4] |
| --- | --- | --- | --- | --- | --- |
| stable | CN1CC(=O)N2[C@H](c3ccc4c(c3)OCO4)c3[nH]c4ccccc4c3C[C@@H]2C1=O.O=C(O)c1cccc(O)c1 |  |  |  |  |
|  | CN1CC(=O)N2[C@H](c3ccc4c(c3)OCO4)c3[nH]c4ccccc4c3C[C@@H]2C1=O [tadalafil] | 94% | approximately 61 % of the dose | approximately 36 % of the dose | almost insoluble in water |
